Source: patent publication US20260053931A1, “MDM2 TARGETING PROTACS” (THE WISTAR INSTITUTE OF ANATOMY AND BIOLOGY, priority 2023, published 2026)

Experiments:
[1] = test system: MDA-MB-231 and MDA-MB-436 TNBC xenografts; assay: TNBC xenografts in nude mice; type: in vivo, mouse
Procedure: A-G. MDA-MB-231 and MDA-MB-436 cells were injected (subcutaneous) into one flank of nude mice and allowed to form palpable tumors (approximately 80 mm^3). Mice (randomized into tumor-size matched groups) were treated (intraperitoneal injection) with MDM2-PROTAC YX-02-030, RG7112D, or vehicle control at 50 mg/kg once daily for 14 days (treatment start, green arrow and stop, red arrow). Kaplan-Meier survival analysis (A) and tumor volume (B; individual, left and averaged, right) were evaluated overtime. C-G, After 72 hr of treatment, tumors (n=3/group; −, vehicle control) were harvested and protein expression evaluated by Western blotting (C), Annexin-V positivity (D), Caspase-3 activity (E), apoptotic subG1 DNA content (F), and viability by Trypan Blue dye exclusion (G). Mean±SD (B (right), D-G). Log-rank tests for A, and longitudinal tumor growth analysis using 2-way ANOVA with Bonferroni correction for B; P-values indicated. *P<0.0021 for D, *P<0.0001 for E, *P<0.0147 for F, and *P<0.0014 for G were determined using unpaired two-tailed t-tests, comparing PROTAC to vehicle control.
Prior to testing YX-02-030 tumors in vivo, mouse liver microsome and pharmacokinetic (PK) studies were performed to determine its stability in vivo. […] Due to its stability in vivo, the effectiveness of YX-02-030 was then evaluated at killing TNBC tumors in mice. Xenografts of MDA-MB-231 and MDA-MB-436 TNBC cells grew to ˜80 mm^3, and then tumor size-matched mice were treated with YX-02-030, RG7112D control compound, or vehicle control. […] To confirm YX-02-030 was hitting its target (MDM2) in the TNBC tumors, tumors were harvested from a cohort of mice after 72 hours of YX-02-030 treatment. […] The toxicity of YX-2-228 was analyzed as compared to both the vehicle and YX-2-30. (FIGS. 25A & 25B).

MDA-MB-231 cells = assay: Proteomics analysis of degradation selectivity; type: cell-based, human; details: 5 μM, 8 hours
Procedure: A proteomics analysis was performed to assess the selectivity of degradation by YX-02-030. MDA-MB-231 cells were treated for 8 hours with 5 μM of YX-02-030 or DMSO in triplicate and processed to provide 25 μg of protein loaded on a 10% acrylamide gel. The entire protein-containing gel regions were excised, digested with trypsin and analyzed by liquid chromatography tandem mass spectrometry (LC-MS/MS) using a 240-min gradient as described (Chae et al., 2016). Peptide sequences were identified using MaxQuant 1.6.3.3 (Cox & Mann, 2008). MS/MS spectra were searched against a UniProt human protein database. […] Under these experimental conditions Mdm2 was not able to be detected either in the treated or untreated samples.

MDA-MB-436 mammospheres = assay: Area of formed mammospheres, MDA-MB-436; type: cell-based, human; details: MDA-MB-436, 3-fold lower concentration than the MDM2 inhibitors, 72 hr
Procedure: FIGS. 21A-21E show the apoptosis induction of p53-inactivated TNBC cells in 2D and 3D cultures by the MDM2-PROTAC YX-02-030. A-B. Colony formation assays (A. Triplicate, 12 days) and mammosphere formation (B. Triplicate 72 hrs) of MDA-MB-231 and MDA-MB-436 cells in the presence of the indicated compounds or DMSO control (−); representative pictures shown. C-E. Formed mammospheres of MDA-MB-231 and MDA-MB-436 cells were treated with the compounds indicated or DMSO control (−), and area (C. n=10 mammospheres, relative to pre-treatment area, 72 hr), real-time imaging (IncuCyte) and quantification of Caspase-3/7 activity (D. n=4-5 wells/compound), and survival/ATP assays (E. Quadruplicate, 72 hr) were performed; representative images shown; scale bar 300 m. Mean±SEM (A-C and E). For A, *P<0.0001 and **P<0.0001, comparing 1 M and 2 M PROTAC, respectively, to control compounds and DMSO vehicle control. For B, *P<0.0046, **P<0.0001, and ***P<0.0001, comparing 0.5 M, 1 M, and 2 M PROTAC, respectively, to control compounds and DMSO vehicle control. For C, *P<0.0001 and **P<0.0001, comparing 2 M and 4 M/6 M PROTAC, respectively, to control compounds and DMSO vehicle control. […]
These were then evaluated in 3D culture as to when the YX-02-030 was effective at preventing TNBC cell mammosphere formation and eliminating already formed mammospheres. […]

[2] = In vivo toxicity, C57Bl/6 mice; set-up: species or system mouse
Procedure: FIGS. 24A-24E show no overt toxicities from the MDM2-PROTAC YX-02-030 observed in vivo. A-B. A. After C57Bl/6 immunocompetent mice received 15 consecutive intraperitoneal (IP) injections of MDM2-PROTAC (50 mg/kg) or vehicle control treatments, complete blood counts were determined. B. H&E sections of formalin-fixed paraffin-embedded tissues evaluated (B, BM-bone marrow). C-E, Nude mice with subcutaneous tumors of MDA-MB-231 and MDA-MB-436 TNBC cells were administered (IP) MDM2-PROTAC YX-02-030, RG7112D, or vehicle control (50 mg/kg) for 14 consecutive days. C. Mouse weight was measured daily throughout the course of treatment. D. Complete blood counts were determined following 13 consecutive treatments. E. Sections of formalin-fixed paraffin-embedded tissues from mice at time of sacrifice were H&E stained and evaluated. Representative images are shown and scale bars are 200 m (spleen) and 300 μm (bone marrow and intestine). Mean±SD (A, C, D).
Prior to testing YX-02-030 tumors in vivo, mouse liver microsome and pharmacokinetic (PK) studies were performed to determine its stability in vivo. […] Due to its stability in vivo, the effectiveness of YX-02-030 was then evaluated at killing TNBC tumors in mice. […] The toxicity of YX-2-228 was analyzed as compared to both the vehicle and YX-2-30. […]

[3] = 50 mg/kg IP once daily for 14 days, compared to control mice

## CCOc1cc(C(C)(C)C)ccc1C1=N[C@](C)(c2ccc(Cl)cc2)[C@](C)(c2ccc(Cl)cc2)N1C(=O)N1CCN(CC(=O)NCCOCCOCCOCC(=O)N[C@H](C(=O)N2C[C@H](O)C[C@H]2C(=O)NCc2ccc(-c3scnc3C)cc2)C(C)(C)C)CC1 (racemic) [YX-02-030]
[1]; [3]
  mouse survival: significantly extended mouse survival
  tumor volume: decreased tumor volume
[1]; nude mice, 50 mg/kg IP, 14 consecutive days
  mouse weight: mouse weight was maintained
[1]; tumors harvested after 72 hours of treatment
  MDM2 protein in tumors: loss of MDM2 protein
MDA-MB-231 cells
  observable proteins affected: < 10%
  proteins significantly changed out of 4237: 31 proteins
MDA-MB-436 mammospheres
  reduction of mammosphere area: 43.8%
[2]; C57Bl/6 mice and immune-deficient mice of the xenograft experiments, 50 mg/kg IP
  overt toxicity: no signs of overt toxicity
[2]; C57Bl/6 mice, 30 mg/kg IP, 2× daily
  tolerability: well tolerated
